Test results from paper PMC6627849, “Distant Non-Obvious Mutations Influence the Activity of a Hyperthermophilic Pyrococcus furiosus Phosphoglucose Isomerase” (Biomolecules, 2019).
Residue numbers refer to the chain shown, from its start. Names and notes keep the numbering of the source.

B1: PfPGI mutant P132R/Y133G (cupin-type phosphoglucose isomerase of Pyrococcus furiosus) (enzyme)
chain: MYKEPFGVKVDFETGIIEGAKKSVRRLSDMEGYFVDERAWKELVEKEDPVVYEVYAVEQEEKEGDLNFATTVLYPGKVGKEFFFTKGHFHAKLDRAEVYVALKGKGGMLLQTPEGDAKWISMEPGTVVYVPRGWAHRTVNIGDEPFIFLAIYPADAGHDYGTIAEKGFSKIVIEENGEVKVVDNPRWKK
notes: cupin-type phosphoglucose isomerase (PfPGI, EC 5.3.1.9), gene pgiA, Pyrococcus furiosus; monomeric subunit 21.5 kDa; the models have no missing residues, residues up to Lys189 are named; Crystallised with MnCl2 and F6P; 5PAA found in the active site; also called RG; mutant RG; source: E. coli (pET24d), overexpressed and purified as described previously [32]
B2: PfPGI mutant P132A/Y133G (cupin-type phosphoglucose isomerase of Pyrococcus furiosus) (enzyme)
chain: B1 chain with R132A
notes: cupin-type phosphoglucose isomerase (PfPGI, EC 5.3.1.9), gene pgiA, Pyrococcus furiosus; monomeric subunit 21.5 kDa; the models have no missing residues, residues up to Lys189 are named; Crystallised with MnCl2 and F6P; 5PAA found in the active site; The two subunits of the dimer are related by crystal symmetry; also called AG; mutant AG; source: E. coli (pET24d), overexpressed and purified as …
B3: PfPGI mutant P132A/Y133D (cupin-type phosphoglucose isomerase of Pyrococcus furiosus) (enzyme)
chain: B1 chain with R132A, G133D
notes: cupin-type phosphoglucose isomerase (PfPGI, EC 5.3.1.9), gene pgiA, Pyrococcus furiosus; monomeric subunit 21.5 kDa; the models have no missing residues, residues up to Lys189 are named; Structure holds only Mn2+ in the active site; also called AD; mutant AD; source: E. coli (pET24d), overexpressed and purified as described previously [32]
B4: PfPGI mutant P132V (cupin-type phosphoglucose isomerase of Pyrococcus furiosus) (enzyme)
chain: B1 chain with R132V, G133Y
notes: cupin-type phosphoglucose isomerase (PfPGI, EC 5.3.1.9), gene pgiA, Pyrococcus furiosus; monomeric subunit 21.5 kDa; the models have no missing residues, residues up to Lys189 are named; Crystals grown with MnCl2 and soaked with F6P; also called VY; mutant VY; source: E. coli (pET24d), overexpressed and purified as described previously [32]

Assays:
[1] = biological target: T1, PfPGI (cupin-type phosphoglucose isomerase) (Pyrococcus furiosus, UniProt P83194, P132R/Y133G); assay: X-ray crystal structure; format: binding; settings: Mn2+ in active site; 5PAA formed from F6P in the crystallization solution; pH 5.5
T1 construct: gene pgiA; pgiA in pET24d, expressed in E. coli, heat treatment plus Q-Sepharose and Superdex 200

[2] = biological target: T1, PfPGI (cupin-type phosphoglucose isomerase); assay: EPR of Mn2+ coordination on adding F6P; format: binding; settings: 10 mM F6P, 0.2 mM MnCl2, pH 8.0; spectra at 13 K
[3] = biological target: T2, PfPGI (cupin-type phosphoglucose isomerase) (Pyrococcus furiosus, UniProt P83194, P132A/Y133D); assay: EPR of Mn2+ coordination on adding F6P; format: binding; settings: 10 mM F6P, 0.2 mM MnCl2, pH 8.0; spectra at 13 K; F6P not seen in the crystal structure
T2 construct: gene pgiA; pgiA in pET24d, expressed in E. coli, heat treatment plus Q-Sepharose and Superdex 200

[4] = biological target: T3, PfPGI (cupin-type phosphoglucose isomerase) (Pyrococcus furiosus, UniProt P83194, P132A/Y133G); assay: EPR of Mn2+ coordination on adding F6P; format: binding; settings: 10 mM F6P, 0.2 mM MnCl2, pH 8.0; spectra at 13 K
T3 construct: gene pgiA; pgiA in pET24d, expressed in E. coli, heat treatment plus Q-Sepharose and Superdex 200

[5] = biological target: the molecule itself; assay: crystal structure; PfPGI mutants at 11.5 mg/mL in 10 mM Tris/HCl pH 8.0, 50 mM F6P, 5 mM MnCl2; molecular replacement with wild-type PfPGI (PDB 1X82); RG, AD and VY with chains A and B, AG with the two subunits related by crystal symmetry

T2 sequence (P83194 whole entry P132A/Y133D): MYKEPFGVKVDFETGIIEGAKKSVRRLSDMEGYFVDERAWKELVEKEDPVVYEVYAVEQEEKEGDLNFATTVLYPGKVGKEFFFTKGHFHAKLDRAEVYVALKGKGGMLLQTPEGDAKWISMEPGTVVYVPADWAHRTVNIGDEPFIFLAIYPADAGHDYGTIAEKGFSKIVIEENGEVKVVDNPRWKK
T3 sequence (P83194 whole entry P132A/Y133G): as the sequence (P83194 whole entry P132A/Y133D) above, with D133G counted along it

Molecule | binding result [5] | further results
O=C(O)[C@@H](O)[C@H](O)[C@H](O)COP(=O)(O)O [5PAA, 5-phosphoarabinonic acid] |  | X-ray crystal structure [1]: 5-phosphoarabinonic acid (5PAA), rather than F6P (as added to the crystallization mixture) was bound
O=P(O)(O)OC[C@H]1OC(O)(CO)[C@@H](O)[C@@H]1O (some centres unmarked) [F6P, fructose-6-phosphate] |  | EPR of Mn2+ coordination on adding F6P [2]: addition of F6P to any of the manganese-containing PfPGI mutants lead to a collapse; EPR of Mn2+ coordination on adding F6P [3]: addition of F6P to any of the manganese-containing PfPGI mutants lead to a collapse; EPR of Mn2+ coordination on adding F6P [4]: addition of F6P to any of the manganese-containing PfPGI mutants lead to a collapse
B1 | binds | 
B2 | binds | 
B3 | binds | 
B4 | binds | 
